Test results as given in PubChem BioAssay AID328 (DTP/NCI, 2004).
Several values for one entry are separate records, joined by “and”; a condition that tells them apart may be missing. Equal entries are not always repeated. Inconclusive results and toxic doses are left out.

Tested on: BDF1 mice, P388 leukemia ip, median survival T/C
Experiment: NCI In Vivo Anticancer Drug Screen. Data for tumor model P388 Leukemia (intraperitoneal) in B6D2F1 (BDF1) mice
Conditions: endpoint: median survival time, higher = longer survival
Method in brief: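 Mice carrying the transplantable tumour receive compound or vehicle. Survival is followed in each arm, and the treated measure is divided by the vehicle measure.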

[1] = dose: 100.0 mg/kg/injection, schedule: Q01DX009 (ip), vehicle: saline
[2] = dose: 200.0 mg/kg/injection, schedule: Q01DX009 (ip), vehicle: saline
[3] = dose: 100.0 mg/kg/injection, schedule: Q01DX009 (ip), vehicle: saline with Tween-80
[4] = dose: 200.0 mg/kg/injection, schedule: Q01DX009 (ip), vehicle: saline with Tween-80
[5] = dose: 400.0 mg/kg/injection, schedule: Q01DX009 (ip), vehicle: saline with Tween-80
[6] = dose: 50.0 mg/kg/injection, schedule: Q01DX009 (ip), vehicle: saline with Tween-80
[7] = dose: 6.25 mg/kg/injection, schedule: Q04DX003 (ip), vehicle: saline with Tween-80
[8] = dose: 12.5 mg/kg/injection, schedule: Q04DX003 (ip), vehicle: saline with Tween-80
[9] = dose: 25.0 mg/kg/injection, schedule: Q04DX003 (ip), vehicle: saline with Tween-80
[10] = dose: 400.0 mg/kg/injection, schedule: Q01DX009 (ip), vehicle: Klucel (hydroxypropylcellulose) (HPC)
[11] = dose: 200.0 mg/kg/injection, schedule: Q04DX003 (ip), vehicle: saline sonified
[12] = dose: 50.0 mg/kg/injection, schedule: Q04DX003 (ip), vehicle: saline with Tween-80
[13] = dose: 100.0 mg/kg/injection, schedule: Q04DX003 (ip), vehicle: saline with Tween-80
[14] = dose: 200.0 mg/kg/injection, schedule: Q04DX003 (ip), vehicle: saline with Tween-80

SMILES: CCCCCC(CN(C)C)C(=O)/C=C/c1c(Cl)cccc1Cl (stereo not given)
- T/C (dose: 3.12 mg/kg/injection, schedule: Q04DX003 (ip), vehicle: Klucel (hydroxypropylcellulose) (HPC)): 104 % of control
- T/C (dose: 6.25 mg/kg/injection, schedule: Q01DX009 (ip), vehicle: Klucel (hydroxypropylcellulose) (HPC)): 110 % of control
- T/C (dose: 6.25 mg/kg/injection, schedule: Q04DX003 (ip), vehicle: Klucel (hydroxypropylcellulose) (HPC)): 109 % of control
- T/C (dose: 12.5 mg/kg/injection, schedule: Q04DX003 (ip), vehicle: Klucel (hydroxypropylcellulose) (HPC)): 104 % of control
- T/C (dose: 18.0 mg/kg/injection, schedule: Q04DX003 (ip), vehicle: Klucel (hydroxypropylcellulose) (HPC)): 105 % of control
- T/C (dose: 28.0 mg/kg/injection, schedule: Q04DX003 (ip), vehicle: Klucel (hydroxypropylcellulose) (HPC)): 115 % of control
- T/C (dose: 40.0 mg/kg/injection, schedule: Q01DX001 (ip), vehicle: saline): 109 % of control
- T/C (dose: 40.0 mg/kg/injection, schedule: Q04DX003 (ip), vehicle: Klucel (hydroxypropylcellulose) (HPC)): 90 % of control
- T/C (dose: 65.0 mg/kg/injection, schedule: Q01DX001 (ip), vehicle: saline): 104 % of control

SMILES: CC(=O)Nc1ccc2c3c(ccc([N+](=O)[O-])c13)CC2
- T/C [1]: 90 % of control
- T/C [2]: 95 % of control

SMILES: O=C1OC(c2ccc(O)cc2)(c2ccc(Oc3ccccc3)cc2)c2ccccc21 (stereo not given)
- T/C [3]: 97 % of control
- T/C [4]: 105 % of control
- T/C [5]: 99 % of control

SMILES: CN(C)c1ccc(-c2cc(C(=O)O)c3cc4ccccc4cc3n2)cc1
- T/C (dose: 12.5 mg/kg/injection, schedule: Q01DX009 (ip), vehicle: saline with Tween-80): 97 % of control
- T/C (dose: 25.0 mg/kg/injection, schedule: Q01DX009 (ip), vehicle: saline with Tween-80): 97 % of control
- T/C [6]: 94 % of control and 102 % of control
- T/C [3]: 98 % of control and 104 % of control

SMILES: C[N+](C)(C)c1ccc2c(c1)CCC/C2=N\N
- T/C [7]: 94 % of control

SMILES: CC1CN(Cc2ccc([N+](=O)[O-])cc2)CC(C)N1N (stereo not given)
- T/C (dose: 3.12 mg/kg/injection, schedule: Q04DX003 (ip), vehicle: saline with Tween-80): 96 % of control
- T/C [7]: 116 % of control
- T/C [8]: 107 % of control
- T/C [9]: 107 % of control

SMILES: N#CCCN(C(=S)Nc1cccc(C(F)(F)F)c1)C1CCCCC1
- T/C [6]: 114 % of control and 123 % of control
- T/C [3]: 110 % of control and 111 % of control
- T/C [4]: 106 % of control

SMILES: Cc1c(O)c([N+](=O)[O-])cc2c1OCOC2
- T/C (dose: 100.0 mg/kg/injection, schedule: Q01DX009 (ip), vehicle: Klucel (hydroxypropylcellulose) (HPC)): 95 % of control
- T/C (dose: 200.0 mg/kg/injection, schedule: Q01DX009 (ip), vehicle: Klucel (hydroxypropylcellulose) (HPC)): 104 % of control
- T/C [10]: 95 % of control

SMILES: O=S(c1ccccc1)C1Cc2ccccc2C1Cl (stereo not given)
- T/C (dose: 50.0 mg/kg/injection, schedule: Q01DX009 (ip), vehicle: other): 107 % of control
- T/C (dose: 100.0 mg/kg/injection, schedule: Q01DX009 (ip), vehicle: other): 107 % of control
- T/C (dose: 200.0 mg/kg/injection, schedule: Q01DX009 (ip), vehicle: other): 115 % of control

SMILES: O=C(Nc1ccccc1)c1c(O)[nH]c(=S)[nH]c1=O
- T/C (dose: 50.0 mg/kg/injection, schedule: Q01DX005 (ip), vehicle: saline with Tween-80): 194 % of control

SMILES: CCCCCC(C1=NC(C)(C)CC(C)O1)c1ccccc1 (stereo not given)
- T/C (dose: 50.0 mg/kg/injection, schedule: Q04DX003 (ip), vehicle: saline sonified): 100 % of control
- T/C (dose: 100.0 mg/kg/injection, schedule: Q04DX003 (ip), vehicle: saline sonified): 100 % of control
- T/C [11]: 100 % of control

SMILES: O=C(C[n+]1cc(Br)cc2ccccc21)c1ccc(O)c(O)c1
- T/C (dose: 50.0 mg/kg/injection, schedule: Q01DX009 (ip), vehicle: Klucel (hydroxypropylcellulose) (HPC)): 95 % of control
- T/C (dose: 176.0 mg/kg/injection, schedule: Q04DX003 (ip), vehicle: saline sonified): 118 % of control
- T/C [2]: 170 % of control
- T/C (dose: 200.0 mg/kg/injection, schedule: Q04DX003 (ip), vehicle: Klucel (hydroxypropylcellulose) (HPC)): 110 % of control
- T/C [11]: 122 % of control
- T/C (dose: 264.0 mg/kg/injection, schedule: Q01DX009 (ip), vehicle: saline with Tween-80): 113 % of control
- T/C [10]: 115 % of control
- T/C (dose: 400.0 mg/kg/injection, schedule: Q01DX009 (ip), vehicle: saline): 180 % of control
- T/C (dose: 400.0 mg/kg/injection, schedule: Q04DX003 (ip), vehicle: saline sonified): 118 % of control

SMILES: COc1ccc2c(c1)CCC1C2=CC(=O)/C1=C\[O-].COc1ccc2c(c1)CCC1C2=CC(=O)/C1=C\[O-].[Cu+2] (stereo not given)
- T/C [8]: 113 % of control
- T/C [9]: 109 % of control

SMILES: Cc1sc(N)c(C#N)c1C
- T/C [12]: 100 % of control
- T/C [13]: 120 % of control
- T/C [14]: 100 % of control

SMILES: CCCCOCN(COCCCC)c1ccc([N+](=O)[O-])cc1
- T/C [6]: 106 % of control
- T/C [3]: 104 % of control
- T/C [4]: 100 % of control

SMILES: O=C1/C(=C\c2ccccc2)OC(c2ccccc2)O/C1=C/c1ccccc1 (stereo not given)
- T/C (dose: 50.0 mg/kg/injection, schedule: Q01DX009 (ip), vehicle: saline): 108 % of control
- T/C [1]: 95 % of control
- T/C (dose: 100.0 mg/kg/injection, schedule: Q04DX003 (ip), vehicle: saline): 120 % of control
- T/C [2]: 97 % of control
- T/C (dose: 200.0 mg/kg/injection, schedule: Q04DX003 (ip), vehicle: saline): 117 % of control
- T/C (dose: 400.0 mg/kg/injection, schedule: Q04DX003 (ip), vehicle: saline): 114 % of control

SMILES: C=C1C2CCC3(C)C(c4ccoc4)OC(=O)CC13OC1CC(=O)C(C)(C)C(CC(=O)OC)C12C (stereo not given)
- T/C (dose: 2.0 mg/kg/injection, schedule: Q01DX009 (ip), vehicle: Klucel (hydroxypropylcellulose) (HPC)): 100 % of control
- T/C (dose: 4.0 mg/kg/injection, schedule: Q01DX009 (ip), vehicle: Klucel (hydroxypropylcellulose) (HPC)): 100 % of control
- T/C (dose: 8.0 mg/kg/injection, schedule: Q01DX009 (ip), vehicle: Klucel (hydroxypropylcellulose) (HPC)): 96 % of control
- T/C (dose: 16.0 mg/kg/injection, schedule: Q01DX009 (ip), vehicle: Klucel (hydroxypropylcellulose) (HPC)): 100 % of control
- T/C (dose: 32.0 mg/kg/injection, schedule: Q01DX009 (ip), vehicle: Klucel (hydroxypropylcellulose) (HPC)): 89 % of control

SMILES: c1ccc(-c2ccc(-c3cn4ccsc4n3)cc2)cc1
- T/C (dose: 100.0 mg/kg/injection, schedule: Q01DX001 (ip), vehicle: Klucel (hydroxypropylcellulose) (HPC)): 101 % of control
- T/C (dose: 200.0 mg/kg/injection, schedule: Q01DX001 (ip), vehicle: Klucel (hydroxypropylcellulose) (HPC)): 99 % of control
- T/C (dose: 400.0 mg/kg/injection, schedule: Q01DX001 (ip), vehicle: Klucel (hydroxypropylcellulose) (HPC)): 100 % of control

SMILES: O=C1C2CCCCC1C(N1CCCC1)CC2 (stereo not given)
- T/C (dose: 100.0 mg/kg/injection, schedule: Q04DX003 (sc), vehicle: olive oil, sesame oil, peanut oil): 100 % of control
- T/C (dose: 200.0 mg/kg/injection, schedule: Q04DX003 (sc), vehicle: olive oil, sesame oil, peanut oil): 86 % of control
- T/C (dose: 400.0 mg/kg/injection, schedule: Q04DX003 (sc), vehicle: olive oil, sesame oil, peanut oil): 100 % of control

SMILES: COC(=O)C1C2CCc3cc(OC)ccc3C2CCC1(C)C(=O)O (stereo not given)
- T/C (dose: 100.0 mg/kg/injection, schedule: Q01DX001 (ip), vehicle: saline sonified): 100 % of control
- T/C (dose: 200.0 mg/kg/injection, schedule: Q01DX001 (ip), vehicle: saline sonified): 104 % of control
- T/C (dose: 400.0 mg/kg/injection, schedule: Q01DX001 (ip), vehicle: saline sonified): 100 % of control

SMILES: Clc1ccc(CNc2ncnc3[nH]ncc23)c(Cl)c1
- T/C [6]: 104 % of control
- T/C [3]: 100 % of control
- T/C [4]: 90 % of control

SMILES: NC(=O)c1nccnc1Cl
- T/C [6]: 110 % of control
- T/C [12]: 101 % of control
- T/C [3]: 98 % of control
- T/C [13]: 102 % of control and 111 % of control
- T/C [4]: 91 % of control
- T/C [14]: 88 % of control and 104 % of control
- T/C (dose: 400.0 mg/kg/injection, schedule: Q04DX003 (ip), vehicle: saline with Tween-80): 92 % of control and 101 % of control

SMILES: C=CC(N)C(=O)O (stereo not given)
- T/C (dose: 100.0 mg/kg/injection, schedule: Q04DX002 (ip), vehicle: saline with Tween-80): 117 % of control
- T/C (dose: 200.0 mg/kg/injection, schedule: Q04DX002 (ip), vehicle: saline with Tween-80): 108 % of control
- T/C (dose: 400.0 mg/kg/injection, schedule: Q04DX002 (ip), vehicle: saline with Tween-80): 100 % of control

SMILES: O=C(NCc1cnccn1)Oc1ccc([N+](=O)[O-])cc1
- T/C [6]: 112 % of control
- T/C [3]: 94 % of control
- T/C [4]: 86 % of control
- T/C [5]: 97 % of control
